Results published in patent US20130123345A1, “METHOD OF TREATING A VIRAL INFECTION D[…] […] ADENOSINE RECEPTOR PATHWAY” (THE OHIO STATE UNIVERSITY, priority 2010, published 2013).

Legend:
influenza-infected mice [1] = test: Mortality / survival of treated influenza-infected mice; format: in vivo, mouse
Experimental: (§1) The pharmacologic blockade of CD73 with APCP (5′-(α,β-methylene)diphosphate) reduces BALF adenosine levels and thereby ameliorates acute lung injury in influenza-infected mice. We investigated effects of daily gavage with APCP (20 mg/kg, in 200 μl saline) on body weight, arterial O2 saturation (SpO2; measured in conscious mice with the MouseOx pulse oximetry system) and survival in 2 groups of 10 individually-marked influenza-infected mice, and compared these animals to mock-infected and untreated influenza-infected mice. […] (FIG. 4C). In fact, 20% of APCP-treated mice survived infection, whereas all untreated mice died. Importantly, APCP gavage had no effect on lung homogenate virus titers at 2 d.p.i. (not shown).
(§2) A1-AdoR activation is pro-inflammatory in influenza infection and pharmacologic blockade of A1-AdoR with the prototypical A1-AdoR antagonist DPCPX (8-Cyclopentyl-1,3-diproopylxanthine) ameliorates adenosine-induced acute lung injury in influenza-infected mice. Influenza-infected mice were treated with DPCPX (1 mg/kg/day), administered by implanted osmotic minipump (Alzet). The effects of this A1-AdoR antagonist on body weight, arterial O2 saturation (measured by pulse oximetry) and survival were investigated in 2 groups of 10 individually-marked influenza-infected mice. For some outcome measures, we also evaluated the effect of daily administration of the A2b-AdoR antagonist enprofylline (4 mg/kg I.P., in 100 μl 10% ethanol in saline; EMD Biosciences), to determine whether A2b-AdoR blockade also modulates influenza outcomes. […] 10% of DPCPX-treated mice survived infection. […] (not shown). […] (not shown).
(§3) Mice were infected intranasally with 50 μl influenza A/WSN/33 under 3% isoflurane anesthesia. Mock-infected animals received 50 μl of virus diluent (PBS with 0.1% BSA). In some experiments, mice were individually marked and weighed daily.

influenza-infected mice [2] = test: Arterial O2 saturation (SpO2) by MouseOx pulse oximetry, peripheral hypoxemia; format: in vivo, mouse
Experimental: as §1, with “Importantly, APCP gavage had no effect on lung homogenate virus titers at 2 d.p.i. (not shown).” left out
A1-AdoR activation is pro-inflammatory in influenza infection and pharmacologic blockade of A1-AdoR with the prototypical A1-AdoR antagonist DPCPX (8-Cyclopentyl-1,3-diproopylxanthine) ameliorates adenosine-induced acute lung injury in influenza-infected mice. […] The effects of this A1-AdoR antagonist on body weight, arterial O2 saturation (measured by pulse oximetry) and survival were investigated in 2 groups of 10 individually-marked influenza-infected mice. For some outcome measures, we also evaluated the effect of daily administration of the A2b-AdoR antagonist enprofylline (4 mg/kg I.P., in 100 μl 10% ethanol in saline; EMD Biosciences), to determine whether A2b-AdoR blockade also modulates influenza outcomes. […]

influenza A/WSN/33 = test: Lung homogenate virus titers; format: in vivo, mouse
Experimental: as §1, §2

influenza-infected mice [3] = test: Influenza-induced loss of body weight in treated infected mice; format: in vivo, mouse
Experimental: as §1, §2, §3

influenza-infected mice [4] = test: Lung water content (wet:dry weight ratio); format: in vivo, mouse; settings: 6 d.p.i.
Experimental: as §2
The right lung was removed weighed, dried in an oven at 55° C. for 5 days, then reweighed. Wet-to-dry weight ratio provides an index of intrapulmonary fluid accumulation.

[5] = test system: influenza H1N1 virus (A/WSN/33) infected BALB/c mice; test: Alveolar fluid clearance in influenza-infected mice (compound added to fluid clearance instillate); format: in vivo, mouse; settings: 2 d.p.i., 10 μM in fluid clearance instillate, 30-min ventilation period
influenza-infected mice [6] = test: Total BAL cell counts (pulmonary inflammation); format: in vivo, mouse; settings: 6 d.p.i.; 1 mg/kg/day by osmotic minipump
Experimental: as §2
Following removal of the left lung, the right lung was lavaged in situ with 0.5 ml of sterile saline. […] Numbers of viable alveolar macrophages, lymphocytes, and polymorphonuclear cells were calculated from total leukocytes (counted using a hemocytometer with 0.4% trypan blue exclusion to assess viability) and differential counts of Diff-Quik-stained cytocentrifuge preparations. […] BAL protein and LDH content were determined by standard colorimetric assays.

[7] = test system: BALB/c mice infected with influenza A/WSN/33; test: Heart rate (bradycardia) by pulse oximetry in influenza-infected mice; format: in vivo; settings: 6 days infection, 10,000 PFU/mouse; systemic treatment
[8] = 1 mg/kg/day by implanted osmotic minipump

With 5′-(α,β-methylene)diphosphate [APCP] the “treated mice that survived infection” value (influenza-infected mice [1]; daily gavage 20 mg/kg, all untreated mice died) was 20%, the “mortality (delay)” value (influenza-infected mice [1]; daily gavage 20 mg/kg, vs untreated infected mice) was “significantly delayed mortality” and the “onset of peripheral hypoxemia (SpO2)” value (influenza-infected mice [2]; daily gavage 20 mg/kg, conscious mice) was “significantly delayed”. The “lung homogenate virus titers” value (influenza A/WSN/33; 2 d.p.i., daily gavage 20 mg/kg) was “no effect” and the “influenza-induced loss of body weight” value (influenza-infected mice [3]; daily gavage 20 mg/kg in 200 μl saline) was “no significant effect”.

With `CCCn1c(=O)[nH]c(=O)c2[nH]cnc21` [enprofylline] the “lung homogenate virus titers” value (influenza A/WSN/33; 6 d.p.i., daily 4 mg/kg I.P.) was “Neither DPCPX nor enprofylline had any effect”, the influenza-induced weight loss (influenza-infected mice [3]; daily 4 mg/kg I.P. in 100 μl 10% ethanol in saline) was “neither DPCPX nor enprofylline had any significant effect” and the “lung water content (wet:dry weight ratio)” value (influenza-infected mice [4]; daily 4 mg/kg I.P.) was “no such effect”.

With `CNCCC(Oc1ccc(C(F)(F)F)cc1)c1ccccc1` (stereo not drawn) [fluoxetine] the “WSN virus-induced suppression of alveolar fluid clearance” value [5] was “reversed”.

`CCCn1c(=O)c2[nH]c(C3CCCC3)nc2n(CCC)c1=O` [DPCPX, 8-cyclopentyl-1,3-dipropylxanthine] was tested, and the “mortality (delay)” value (influenza-infected mice [1]; [8]) was “significantly delayed mortality”, the “treated mice that survived infection” value (influenza-infected mice [1]; [8]) was 10% and the “onset of peripheral hypoxemia” value (influenza-infected mice [2]; [8]) was “significantly delayed”. For the same compound, the “lung homogenate virus titers” value (influenza A/WSN/33; 6 d.p.i., 1 mg/kg/day by osmotic minipump) was “Neither DPCPX nor enprofylline had any effect”, the influenza-induced weight loss (influenza-infected mice [3]; [8]) was “neither DPCPX nor enprofylline had any significant effect” and the “lung water content (wet:dry weight ratio)” value (influenza-infected mice [4]; 1 mg/kg/day by osmotic minipump) was “significantly reduced”. For the same compound, the “total BAL cell counts” value (influenza-infected mice [6]) was “significant reduction” and the “influenza-induced bradycardia (heart rate)” value [7] was “reversed”.

For `N#CC(=C(N)Sc1ccccc1N)C(C#N)=C(N)Sc1ccccc1N` [U0126, 1,4-diamino-2,3-dicyano-1,4-bis[2-aminophenylthio] butadiene], the “WSN virus-induced suppression of alveolar fluid clearance” value [5] was “reversed”.
